Measured values from ChEMBL document CHEMBL1201862, “PubChem BioAssay data set” (2004).
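Compound exposure: 48 hours, 5 concentrations, 96-well plates. GI50 = concentration required for 50% inhibition of growth.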 Activity calls are given as the source filed them. Rule as the data show it: active = GI50 up to about 1.1 µM and inactive = higher.

Assays:
Assay in all cases: NCI-60 cell line screen, 48 h
[1] = tested on: NCI-H460
[2] = tested on: TK-10
[3] = tested on: OVCAR-8
[4] = tested on: NCI-H226
[5] = tested on: MDA-MB-231
[6] = tested on: HT-29
[7] = tested on: RPMI-8226
[8] = tested on: MDA-N
[9] = tested on: SK-MEL-5
[10] = tested on: KM12
[11] = tested on: A498
[12] = tested on: SK-OV-3
[13] = tested on: SR
[14] = tested on: NCI-H522
[15] = tested on: HL-60
[16] = tested on: SF-295
[17] = tested on: HCT-15

SMILES | GI50 [1] | GI50 [2] | GI50 [3] | GI50 [4] | GI50 [5] | GI50 [6] | GI50 [7] | GI50 [8] | GI50 [9] | GI50 [10] | GI50 [11] | GI50 [12] | GI50 [13] | GI50 [14] | GI50 [15] | GI50 [16] | GI50 [17] [µM]
N#Cc1nc(C#N)n(S(=O)(=O)c2ccccc2)c1NS(=O)(=O)c1ccccc1 | > 100 µM (inactive) | > 100 µM (inactive) | > 100 µM (inactive) | > 100 µM (inactive) | > 100 µM (inactive) | > 100 µM (inactive) | > 100 µM (inactive) | > 100 µM (inactive) | > 100 µM (inactive) | > 100 µM (inactive) | > 100 µM (inactive) | > 100 µM (inactive) | > 38.1 µM (inactive) | > 100 µM (inactive) | > 100 µM (inactive) | > 100 µM (inactive) | > 100
c1ncn(C23C4C5C6C4C2C6C53)n1 (configuration not stated) | > 100 µM (inactive) | > 100 µM (inactive) | > 100 µM (inactive) | > 100 µM (inactive) | > 100 µM (inactive) | > 100 µM (inactive) | > 100 µM (inactive) | > 100 µM (inactive) | > 100 µM (inactive) | > 100 µM (inactive) | > 100 µM (inactive) | > 100 µM (inactive) | > 100 µM (inactive) | > 100 µM (inactive) | > 100 µM (inactive) | > 100 µM (inactive) | > 100
CN(C)Cc1cc(/N=N/c2ccccc2Cl)cc(CN(C)C)c1O | 47.2 µM (inactive) | > 100 µM (inactive) | 45.5 µM (inactive) | > 100 µM (inactive) | 98.4 µM (inactive) | 42.9 µM (inactive) | > 100 µM (inactive) | 29.2 µM (inactive) | 18.2 µM (inactive) | 77.6 µM (inactive) | 33.7 µM (inactive) |  | 45.2 µM (inactive) | 12.3 µM (inactive) | 20.8 µM (inactive) | 44.7 µM (inactive) | > 100
CN1Cc2ccccc2S(=O)(=O)n2cccc2C1=O | > 100 µM (inactive) | > 100 µM (inactive) |  |  | > 100 µM (inactive) |  | > 100 µM (inactive) | > 100 µM (inactive) | > 100 µM (inactive) | > 100 µM (inactive) | > 100 µM (inactive) | > 100 µM (inactive) | 8.41 µM (inactive) | > 100 µM (inactive) | > 100 µM (inactive) | > 100 µM (inactive) | > 100
CCOC(=O)c1c(N2CCCC2)[nH]c(=O)c(C(c2c(O)c(C(=O)OCC)c(N3CCCC3)[nH]c2=O)C(C)C)c1O | > 100 µM (inactive) | 42.4 µM (inactive) | > 100 µM (inactive) | > 100 µM (inactive) | 21.7 µM (inactive) | > 100 µM (inactive) | > 100 µM (inactive) | > 100 µM (inactive) | > 100 µM (inactive) | > 100 µM (inactive) | > 100 µM (inactive) | > 100 µM (inactive) | 37.5 µM (inactive) | 43.5 µM (inactive) |  | > 100 µM (inactive) | > 100
CCc1cc(Cc2cc(CC)c(NC(=O)C(=O)CC(=O)c3sc(-c4cccnc4)nc3C)c(CC)c2)cc(CC)c1NC(=O)C(=O)CC(=O)c1sc(-c2cccnc2)nc1C | > 100 µM (inactive) |  | > 100 µM (inactive) | > 100 µM (inactive) | > 100 µM (inactive) | > 100 µM (inactive) | > 100 µM (inactive) | > 100 µM (inactive) | > 100 µM (inactive) | > 100 µM (inactive) | > 100 µM (inactive) | > 100 µM (inactive) | > 10 µM (inactive) | > 100 µM (inactive) | > 100 µM (inactive) | 54.3 µM (inactive) | > 100
CC(=O)NC1C(OCc2ccccc2)OC(CO)C(O)C1OC(C)C(=O)NC(C(=O)N[C@@H](CCC(=O)NCCNCCNc1c2ccccc2nc2cccc([N+](=O)[O-])c12)C(N)=O)C(C)C (some centres not stated) | 14.7 µM (inactive) | 37.8 µM (inactive) | 19.6 µM (inactive) | > 100 µM (inactive) | 70.6 µM (inactive) |  | 17.9 µM (inactive) | 20.1 µM (inactive) |  | 26.5 µM (inactive) | 41.8 µM (inactive) | > 100 µM (inactive) | 1.78 µM (inactive) |  | 10.1 µM (inactive) | 48.5 µM (inactive) | 24.7
Cc1cccc(/C=N/NC(=S)NC2CCCCC2)n1 | 13.5 µM (inactive) | 58.5 µM (inactive) | 19.4 µM (inactive) | 15.7 µM (inactive) | 35.1 µM (inactive) | 3.27 µM (inactive) | 6.92 µM (inactive) | 28.4 µM (inactive) | 29.9 µM (inactive) | 31.1 µM (inactive) | 28.1 µM (inactive) | 23.1 µM (inactive) | 4.76 µM (inactive) | 7.96 µM (inactive) | 2.86 µM (inactive) | 29 µM (inactive) | 5.26
CC(=O)OCCn1cnc2c(NCC=C(C)C)ncnc21 | > 100 µM (inactive) | > 100 µM (inactive) | > 100 µM (inactive) | > 100 µM (inactive) | > 100 µM (inactive) | > 100 µM (inactive) | > 100 µM (inactive) | > 100 µM (inactive) | > 100 µM (inactive) | > 100 µM (inactive) | > 100 µM (inactive) | > 100 µM (inactive) | > 100 µM (inactive) | > 100 µM (inactive) | > 100 µM (inactive) | > 100 µM (inactive) | 
Nc1nc(Cl)c(N)c(NCC2(CO)CCCC2)n1 | > 100 µM (inactive) | > 100 µM (inactive) | > 100 µM (inactive) | > 100 µM (inactive) | > 100 µM (inactive) | > 100 µM (inactive) | > 100 µM (inactive) | > 100 µM (inactive) | 30.8 µM (inactive) | > 100 µM (inactive) | 44.7 µM (inactive) | 10.4 µM (inactive) | > 100 µM (inactive) | > 100 µM (inactive) | > 100 µM (inactive) | 86.7 µM (inactive) | > 100
CC(C)[C@H]1NC(=O)[C@H]2N=C(S[C@H]2C)[C@@H]2CCCN2C(=O)[C@H](Cc2ccccc2)NC(=O)[C@@H]2CSC(=N2)[C@@H](Cc2ccccc2)NC(=O)[C@@H]2CSC1=N2 |  | 21.7 µM (inactive) | 33.6 µM (inactive) | 21 µM (inactive) | > 50 µM (inactive) | 25.8 µM (inactive) | 7.62 µM (inactive) | 30.2 µM (inactive) | 24.4 µM (inactive) | 12.3 µM (inactive) | 19.2 µM (inactive) | 35.5 µM (inactive) | 5.65 µM (inactive) | 12.2 µM (inactive) | 0.0912 µM (active) | 30.3 µM (inactive) | 25.3
O=S(=O)(c1ccccc1)n1c2ccc(Br)cc2c2nc3ccccc3nc21 | > 100 µM (inactive) | > 100 µM (inactive) | > 100 µM (inactive) | 47.9 µM (inactive) | > 100 µM (inactive) | > 100 µM (inactive) | > 100 µM (inactive) | > 100 µM (inactive) | > 100 µM (inactive) | > 100 µM (inactive) | > 100 µM (inactive) |  | > 100 µM (inactive) | > 100 µM (inactive) |  | > 100 µM (inactive) | > 100
Cc1cn(CCCCC2=NCCCN2)c(=O)[nH]c1=O | > 52.5 µM (inactive) | 9.18 µM (inactive) |  | > 57.7 µM (inactive) | > 29.4 µM (inactive) |  | > 100 µM (inactive) | > 100 µM (inactive) | > 28.1 µM (inactive) | > 31.3 µM (inactive) | > 31.8 µM (inactive) | > 29.6 µM (inactive) | > 28.9 µM (inactive) | > 30.8 µM (inactive) |  | 46.5 µM (inactive) | > 32.2
O=S(=O)(O)c1ccc2c(/N=N/c3ccccc3Cl)c(O)ccc2c1 |  | > 100 µM (inactive) | > 100 µM (inactive) |  | > 100 µM (inactive) | > 100 µM (inactive) | > 100 µM (inactive) | > 100 µM (inactive) | > 100 µM (inactive) | > 100 µM (inactive) | > 100 µM (inactive) | > 100 µM (inactive) | > 100 µM (inactive) | > 100 µM (inactive) |  | > 100 µM (inactive) | > 100
COc1ccc(-n2nnc(C(N)=O)c2O)cc1 | > 100 µM (inactive) |  | > 100 µM (inactive) | > 100 µM (inactive) | > 100 µM (inactive) | > 100 µM (inactive) | > 100 µM (inactive) | > 100 µM (inactive) | > 100 µM (inactive) | > 100 µM (inactive) | > 100 µM (inactive) | > 100 µM (inactive) | > 100 µM (inactive) | > 100 µM (inactive) | > 100 µM (inactive) | > 100 µM (inactive) | > 100
O=C(/C=C/c1ccc(O)c(O)c1)OCCOC(=O)/C=C/c1ccc(O)c(O)c1 | 37.2 µM (inactive) | 41.5 µM (inactive) | 32.2 µM (inactive) | 30.1 µM (inactive) | 38 µM (inactive) | 21.4 µM (inactive) | 36.2 µM (inactive) | 19.8 µM (inactive) | 18.2 µM (inactive) | 17.6 µM (inactive) | 39.5 µM (inactive) | 24.2 µM (inactive) | 22.6 µM (inactive) | 20 µM (inactive) |  | 21.5 µM (inactive) | 35.1
O=[N+]([O-])c1ccc(/N=N/N2CCCC2)cc1 | > 100 µM (inactive) | > 100 µM (inactive) | > 100 µM (inactive) | > 100 µM (inactive) | > 100 µM (inactive) |  | > 100 µM (inactive) | > 100 µM (inactive) | > 100 µM (inactive) | > 100 µM (inactive) | > 100 µM (inactive) | > 100 µM (inactive) | 79.4 µM (inactive) | > 100 µM (inactive) | 32.2 µM (inactive) | > 100 µM (inactive) | > 100
